Test results: patent publication EP0819124B1, “AZOLE COMPOUNDS WITH ANTIMYCOTIC ACTIVITY FOR HUMAN AND VETERINARY USE” (ZAMBON GROUP S.p.A., priority 1995, dated 1996)
Values after ≈ are worked out from the molar mass of the structure shown. Read-outs that look alike come from different tables or passages of the source.

Key:
[1] = system: C. spp * (5) (C. parapsilosis, lusitaniae, kefyr); test: In vitro antimycotic activity, strain panel (Table 2); format: cell-based; settings: Lodderomyces parapsilosis
Description: (§1) The determination of the activity inhibiting the growth of mycetes was evaluated by the macromethod of scalar brothdilutions in geometrical progression (M.R. McGinnis and M.G. Rinaldi, "Antifungal drugs: mechanisms of action, drug resistance, susceptibility testing and assay of activity in biological fluids", in Antibiotic in Laboratory Medicine, Ed. V. Lorian, Baltimora 1991).
(§2) As culture media Yeast Nitrogen Base broth (YNB) and Sabouraud Dextrose broth (SDB) were used for yeasts and moulds, respectively.
(§3) The results obtained in SDB (after incubation at 28°C for 7 days) were expressed as minimum inhibiting concentrations (MIC) the growth of mycetes, while those obtained in YNB (after incubation at 35°C for 48 hours) were expressed as concentrations able to inhibit at 50% (IC50) the growth of the yeast.
(§4) As reference compounds Fluconazole, Itraconazole and Genaconazole were used.
(§5) Note to the table: MIC expressed as µg/ml Within brackets the number of tested strains Table 3

B. capitatus (1) = test: as above; format: cell-based; settings: Magnusiomyces capitatus
Description: as §1, §2, §3, §4, §5

C. tropicalis (2) = test: as above; format: cell-based; settings: Candida tropicalis
Description: as §1, §2, §3, §4, §5

Trichosporon sp. (1) = test: as above; format: cell-based
Description: as §1, §2, §3, §4, §5

C. albicans (7) = test: as above; format: cell-based; settings: Candida albicans
Description: as §1, §2, §3, §4, §5

C. neoformans (4) = test: as above; format: cell-based; settings: Cryptococcus neoformans
Description: as §1, §2, §3, §4, §5

A. niger = test: In vitro antimycotic activity against recently isolated Aspergillus niger (Table 3); format: cell-based; settings: A. niger strain 94-6222; quantity and unit not given in Table 3
Description: as §1, §2, §3, §4

Fusarium sp = test: In vitro antimycotic activity against recently isolated Fusarium strains (Tables 2 and 3); format: cell-based; settings: for MIC: Fusarium; for In vitro antimycotic activity: quantity and unit not given in Table 3
Description: as §1, §2, §3, §4, §5

C. krusei (2) = test: In vitro antimycotic activity, strain panel (Table 2); format: cell-based, Candida krusei; settings: Pichia kudriavzevii
Description: as §1, §2, §3, §4, §5

C. albicans 1040 = test: In vitro antimycotic activity, macromethod of scalar broth dilutions (YNB); format: cell-based, Candida albicans; settings: Candida albicans, 1040, 48 h
Description: as §1, §2, §3, §4

T.mentagrophytes = test: In vitro antimycotic activity, macromethod of scalar broth dilutions (SDB); format: cell-based, Trychophyton mentagrophytes; settings: Trichophyton mentagrophytes, 168 h
Description: as §1, §2, §3, §4

C. neoformans = test: In vitro antimycotic activity, macromethod of scalar broth dilutions (YNB); format: cell-based; settings: Cryptococcus neoformans, 48 h
Description: as §1, §2, §3, §4

Candida albicans 1040 = test: In vivo antimycotic activity in mice experimentally infected by C. albicans, oral route; design: species or system Charles River white mice (CD1 strain)
Description: Charles River white mice (CD1 strain) weighing from 23 to 25 g, normo-feeded with standard diet and water ad libitum were used.
A suspension (0.2 ml containing 2.5x10^7 cells/ml) of Candida albicans 1040 in physiologic solution was injected to each animal by venous route. Immediately after the infection and after 4, 24 and 48 hours, the animals received by oral route (in arabic gum at 2%) doses increasing in a geometrical progression of the compound to be tested. The infected group was used as control.
The observation of the mortality of the mice was prolonged up to 14 days. From the number of survived animals for each concentration the average protective dose (DP50) was calculated by probits analysis (L.Lison - "Statistica applicata alla biologia sperimentale. La programmazione dell'esperimento e l'analisi dei risultati" - Casa Editrice Ambrosiana, 1961).
Compounds R1 and R2 were used as comparative compounds.
Fluconazole and Itraconazole were used as reference compounds.

C. glabrata (2) = test: In vitro antimycotic activity, strain panel (Table 2); format: cell-based, Candida glabrata; settings: Nakaseomyces glabratus
Description: as §1, §2, §3, §4, §5

A. fumigatus = test: In vitro antimycotic activity, macromethod of scalar broth dilutions (SDB); format: cell-based; settings: Aspergillus fumigatus, 168 h
Description: as §1, §2, §3, §4

## C[C@H]([C@](O)(Cn1cncn1)c1ccc(F)cc1F)S(C)(=O)=O [Genaconazole, (2R,3R) α-(2,4-difluorophenyl)-α-[1-(methylsulfonyl)ethyl]-1H-1,2,4-triazol-1-ethanol, reference compound]
[1]; C. parapsilosis, lusitaniae, kefyr, 5 strains, read-out: MIC50
  MIC50: 0.5 µg/mL (≈ 1.51 µM)
[1]; C. parapsilosis, lusitaniae, kefyr, 5 strains, read-out: MIC90
  MIC90: 1 µg/mL (≈ 3.02 µM)
B. capitatus (1); B. capitatus, 1 strain, single value under head MIC50 MIC90, read-out: MIC
  MIC: 16 µg/mL (≈ 48.3 µM)
C. tropicalis (2); C. tropicalis, 2 strains, single value or range printed under head MIC50 MIC90, read-out: MIC
  MIC: > 64 µg/mL
Trichosporon sp. (1); Trichosporon sp., 1 strain, single value under head MIC50 MIC90, read-out: MIC
  MIC: 32 µg/mL (≈ 96.6 µM)
C. albicans (7); C. albicans, 7 strains, read-out: MIC50
  MIC50: 2 µg/mL (≈ 6.04 µM)
C. albicans (7); C. albicans, 7 strains, read-out: MIC90
  MIC90: 32 µg/mL (≈ 96.6 µM)
C. neoformans (4); C. neoformans, 4 strains, read-out: MIC50
  MIC50: 8 µg/mL (≈ 24.1 µM)
C. neoformans (4); C. neoformans, 4 strains, read-out: MIC90
  MIC90: 16 µg/mL (≈ 48.3 µM)
A. niger
  In vitro antimycotic activity: 32
Fusarium sp
  MIC: 64 µg/mL (≈ 193 µM)
Fusarium sp; Fusarium sp strain 81-256
  In vitro antimycotic activity: 64
C. krusei (2); C. krusei, 2 strains, range printed under head MIC50 MIC90, read-out: MIC
  MIC: 16 to 32 µg/mL (≈ 48.3 to 96.6 µM)

## CC(COC(F)(F)C(F)F)C(O)(Cn1cncn1)c1ccc(Cl)cc1Cl (racemic) [Compound 1, (±)-1-(1H-1,2,4-triazolyl)-2-hydroxy-2-(2,4-dichlorophenyl)-3-methyl-4-(1,1,2,2-tetrafluoroethoxy)butane]
C. albicans 1040
  IC50: 0.0156 µg/mL (≈ 0.0375 µM)
T.mentagrophytes
  MIC: 0.125 µg/mL (≈ 0.3 µM)
[1]
  MIC50: ≤ 0.03 µg/mL
  MIC90: ≤ 0.03 µg/mL
B. capitatus (1)
  MIC: ≤ 0.03 µg/mL
C. tropicalis (2)
  MIC: 0.12 µg/mL (≈ 0.288 µM)
Trichosporon sp. (1); Trichosporon
  MIC: ≤ 0.03 µg/mL
C. albicans (7)
  MIC50: ≤ 0.03 µg/mL
  MIC90: 0.06 µg/mL (≈ 0.144 µM)
C. neoformans (4)
  MIC50: ≤ 0.03 µg/mL
  MIC90: ≤ 0.03 µg/mL
C. neoformans
  IC50: 0.004 µg/mL (≈ 0.00961 µM)
Candida albicans 1040; mice infected by C. albicans, dose 25 mg/kg/os, day 3
  % percentage of survival after day 3: 100%
Candida albicans 1040; mice infected by C. albicans, dose 25 mg/kg/os, day 6
  % percentage of survival after day 6: 100%
Candida albicans 1040; oral route, 8 days from the infection, probits analysis
  PD50 at 8th day: 0.120 mg/kg/os
Candida albicans 1040; oral route, 14 days from the infection, probits analysis
  PD50 at 14th day: 0.74 mg/kg/os
C. glabrata (2)
  MIC: 0.12 µg/mL (≈ 0.288 µM)
A. niger
  In vitro antimycotic activity: ≤0.03
Fusarium sp
  MIC: 0.25 µg/mL (≈ 0.601 µM)
Fusarium sp; Fusarium sp strain 81-256
  In vitro antimycotic activity: 0.25
Fusarium sp; Fusarium sp strain 86-3369
  In vitro antimycotic activity: 0.5
Fusarium sp; Fusarium sp strain 88-2116
  In vitro antimycotic activity: 0.5
Fusarium sp; Fusarium sp strain 946301
  In vitro antimycotic activity: 0.5
A. fumigatus
  MIC: 8 µg/mL (≈ 19.2 µM)
C. krusei (2)
  MIC: 0.03 to 0.12 µg/mL (≈ 0.0721 to 0.288 µM)
